The values that follow come from ChEMBL document CHEMBL1131279, “Endothiopeptide inhibitors of HIV-1 protease” (Bioorg Med Chem Lett, 1998).

Structures are written as SMILES. Starred links: 1 amine or outer side, 2 acyl side, 3 side chain; linkers in the order of their positions; H or OH if unused. Non-standard residues stand in square brackets, D forms with d. Residues, ends and D or L forms follow the SMILES beside them. *: point of attachment. X2 = O=C([C@H](Cc1ccccc1)NC(=S)[C@H](Cc1ccccc1)N[*:1])[*:2]; X3 = O=C([C@H](Cc1ccccc1)CC(O)[C@H](Cc1ccccc1)N[*:1])[*:2]; X4 = CC(C)[C@H](/N=C(\S)[C@H](Cc1ccccc1)N[*:1])C(=O)[*:2]; AlaΨ(CSNH)Ala = C[C@H](NC(=S)[C@H](C)N[*:1])C(=O)[*:2]; X5 = C[C@H](N[*:1])C(=S)N[C@@H](Cc1ccccc1)C(=O)[*:2]; X1 = COC(=O)[C@@H](NC(=S)[C@@H](N*)C(C)C)C(C)C; Cbz = O=C(OCc1ccccc1)*; Boc = CC(C)(C)OC(=O)* A value given as a limit tells only on which side of the number the result lay.

Assay [1] addresses T1, Human immunodeficiency virus type 1 protease (Human immunodeficiency virus 1, UniProt Q72874). The assay can be described thus: Binding affinity was evaluated for competitive inhibition of HIV-1 Protease.
Assay [2] has as its target T1, Human immunodeficiency virus type 1 protease. Put plainly: Inhibitory activity against HIV-1 Protease was determined.

The Ki is a dissociation constant, usually derived from enzyme kinetics or from competition with a known ligand. A low value points to higher affinity. For orientation: IC50 means the concentration needed to halve the response being measured. In assay [1], `COC(=O)[C@@H](NC(=S)[C@@H](NC(=O)[C@H](Cc1ccccc1)NC(=O)[C@H](Cc1ccccc1)NC(=O)[C@H](C)NC(=O)[C@H](C)NC(=O)OC(C)(C)C)C(C)C)C(C)C` (Boc-AAFF-X1) displayed a Ki of 3.4 µM. In assay [2], this molecule yielded an IC50 of 4.5 µM. For the molecule `COC(=O)[C@@H](NC(=O)[C@@H](/N=C(\S)[C@H](Cc1ccccc1)NC(=O)[C@H](Cc1ccccc1)NC(=O)[C@H](C)NC(=O)[C@H](C)NC(=O)OC(C)(C)C)C(C)C)C(C)C` (Boc-AAF[X4]V-OMe), in assay [2], the IC50 is over 200 µM. Consider `COC(=O)[C@@H](NC(=O)[C@@H](NC(=O)[C@H](Cc1ccccc1)NC(=S)[C@H](Cc1ccccc1)NC(=O)[C@H](C)NC(=O)[C@H](C)NC(=O)OC(C)(C)C)C(C)C)C(C)C` (Boc-AA[X2]VV-OMe), for which the IC50 in assay [2] is 18 µM. In assay [2], `COC(=O)[C@@H](NC(=O)[C@@H](NC(=O)[C@H](Cc1ccccc1)NC(=O)[C@H](Cc1ccccc1)NC(=S)[C@H](C)NC(=O)[C@H](C)NC(=O)OC(C)(C)C)C(C)C)C(C)C` (Boc-A[X5]FVV-OMe) yielded an IC50 of 51 µM. Consider `COC(=O)[C@@H](NC(=O)[C@@H](NC(=O)[C@H](Cc1ccccc1)NC(=O)[C@H](Cc1ccccc1)NC(=O)[C@H](C)/N=C(\S)[C@H](C)NC(=O)OC(C)(C)C)C(C)C)C(C)C` (Boc-[AlaΨ(CSNH)Ala]FFVV-OMe), for which half-maximal inhibition in assay [2] (IC50) required 160 µM. In turn, `COC(=O)[C@@H](NC(=O)[C@@H](NC(=O)[C@H](Cc1ccccc1)CC(O)[C@H](Cc1ccccc1)NC(=O)[C@H](C)NC(=O)[C@H](C)NC(=O)OCc1ccccc1)C(C)C)C(C)C` (some centres not stated) (Cbz-AA[X3]VV-OMe) displayed a Ki in assay [2] of 0.0004 µM. In other words, the sub-nanomolar range.
